Test results from paper PMC7309225, “Synthesis, Biodistribution, and Radiation Dosimetry of a Novel mGluR5 Radioligand: ^18F-AZD9272” (ACS Chemical Neuroscience, 2020).

How the values were obtained:
[1] = Whole body PET and radiation dosimetry (OLINDA/EXM 1.1); type: in vivo, cynomolgus monkey; conditions: for Estimated radiation dose: human estimate, adult male model
Experimental: Two female cynomolgus monkeys (NHP3: 7420 g and NHP4: 6360 g) were used in this study. Anesthesia was induced by intramuscular injection of ketamine hydrochloride (approximately 10 mg/kg) at AFL and maintained by intravenous infusion of ketamine (4 mg/kg/h) and xylazine (0.4 mg/kg/h) with a pump. The body of the NHP was immobilized using a vacuum pad. Body temperature was maintained by using a Bair Hugger system (model 505, Arizant Healthcare, MN) and monitored with an esophageal thermometer. Heart rate, blood pressure, respiratory rate, and oxygen saturation were continuously monitored throughout the experiments. Fluid balance was maintained by continuous infusion of saline.
Whole-body PET scans were conducted using a GE Discovery PET/CT 710 system (GE Healthcare, Waukesha, WI). One low-dose CT scan was performed before intravenous administration of ^18F-AZD9272 for attenuation correction. Then five series of PET acquisitions, each covering five axial fields of view (AFOV), were conducted. The five PET series consisted of two 20 s × 5 AFOV, three 40 s × 5 AFOV, three 80 s × 5 AFOV, three 160 s × 5 AFOV, and eight 240 s × 5 AFOV. The total duration of the whole-body PET measurement was around 4 h. PET images were reconstructed with a 3D ordered-subset expectation maximization (OSEM) algorithm with three iterations and 18 subsets, including the time-of-flight information (VUE Point FX) and the point spread function correction (Sharp IR). A 2D Gaussian filter with 5.5 mm cutoff was used.
ROIs were drawn for the brain, heart, liver, lung, kidney, gall bladder, bone (lumbar vertebrae), urinary bladder, stomach, small intestine, spleen, and pancreas with the help of the CT images for anatomic landmarks. The time–activity curve was expressed as the percentage of the injected dose (%ID) calculated as follows: decay-corrected radioactivity (Bq/cc) × ROI volume (cc)/injected dose (Bq) × 100.
Estimates of the absorbed radiation dose in humans were calculated with OLINDA/EXM 1.1 (Organ Level INternal Dose Assessment Code) software, using the adult male (70 kg) reference model.[36] The fractional uptake in NHP organs was assumed to be equal to the uptake in human organs.

[2] = test system: monoamine oxidase-B (MAO-B); set-up: method as in PMID 23541825; conditions: NHP brain; cited from earlier work

N#Cc1cc(F)cc(-c2nc(-c3ccc([18F])cn3)no2)c1 [^18F-AZD9272, 3-fluoro-5-(3-(5-[^18F]fluoropyridin-2-yl)-1,2,4-oxadiazol-5-yl)benzonitrile]
Estimated radiation dose ([1]; LLI wall, NHP3): 26.8 μSv/MBq
Estimated radiation dose ([1]; LLI wall, NHP4): 27.9 μSv/MBq
Estimated radiation dose ([1]; LLI wall, mean): 27.4 μSv/MBq
Whole body organ uptake (PET) ([1]; NHP whole body): High uptakes were seen in liver and small intestine, followed by brain and kidney
Estimated radiation dose ([1]; ULI wall, NHP3): 65.7 μSv/MBq
Estimated radiation dose ([1]; ULI wall, NHP4): 69.4 μSv/MBq
Estimated radiation dose ([1]; ULI wall, mean): 67.6 μSv/MBq
Estimated radiation dose ([1]; adrenals, NHP3): 14.6 μSv/MBq
Estimated radiation dose ([1]; adrenals, NHP4): 14.1 μSv/MBq
Estimated radiation dose ([1]; adrenals, mean): 14.4 μSv/MBq
Estimated radiation dose ([1]; brain, NHP3): 13.0 μSv/MBq
Estimated radiation dose ([1]; brain, NHP4): 17.4 μSv/MBq
Estimated radiation dose ([1]; brain, mean): 15.2 μSv/MBq
Estimated radiation dose ([1]; breasts, NHP3): 8.0 μSv/MBq
Estimated radiation dose ([1]; breasts, NHP4): 7.9 μSv/MBq
Estimated radiation dose ([1]; breasts, mean): 7.9 μSv/MBq
Estimated radiation dose ([1]; effective dose, NHP3): 17.4 μSv/MBq
Estimated radiation dose ([1]; effective dose, NHP4): 17.4 μSv/MBq
Estimated radiation dose ([1]; effective dose, mean): 17.4 μSv/MBq
Estimated radiation dose ([1]; gallbladder wall, NHP3): 21.3 μSv/MBq
Estimated radiation dose ([1]; gallbladder wall, NHP4): 21.1 μSv/MBq
Estimated radiation dose ([1]; gallbladder wall, mean): 21.2 μSv/MBq
Estimated radiation dose ([1]; heart wall, NHP3): 17.5 μSv/MBq
Estimated radiation dose ([1]; heart wall, NHP4): 19.0 μSv/MBq
Estimated radiation dose ([1]; heart wall, mean): 18.3 μSv/MBq
Human radiation dose estimate, upper large intestine (ULI) wall ([1]; highest-dose organ): around 0.068 mSv/MBq
Radioactivity that can be injected to humans ([1]; if the limit is 10 mSv for the total radiation exposure): 570 MBq
Estimated radiation dose ([1]; kidneys, NHP3): 42.3 μSv/MBq
Estimated radiation dose ([1]; kidneys, NHP4): 29.6 μSv/MBq
Estimated radiation dose ([1]; kidneys, mean): 36.0 μSv/MBq
Estimated radiation dose ([1]; liver, NHP3): 47.0 μSv/MBq
Estimated radiation dose ([1]; liver, NHP4): 45.7 μSv/MBq
Estimated radiation dose ([1]; liver, mean): 46.4 μSv/MBq
Estimated radiation dose ([1]; lungs, NHP3): 12.7 μSv/MBq
Estimated radiation dose ([1]; lungs, NHP4): 11.8 μSv/MBq
Estimated radiation dose ([1]; lungs, mean): 12.3 μSv/MBq
Human radiation dose estimate, most organs ([1]; most organs): 0.01–0.02 mSv/MBq
Estimated radiation dose ([1]; muscle, NHP3): 10.1 μSv/MBq
Estimated radiation dose ([1]; muscle, NHP4): 10.0 μSv/MBq
Estimated radiation dose ([1]; muscle, mean): 10.1 μSv/MBq
Estimated radiation dose ([1]; osteogenic cells, NHP3): 14.5 μSv/MBq
Estimated radiation dose ([1]; osteogenic cells, NHP4): 14.5 μSv/MBq
Estimated radiation dose ([1]; osteogenic cells, mean): 14.5 μSv/MBq
Estimated radiation dose ([1]; ovaries, NHP3): 18.2 μSv/MBq
Estimated radiation dose ([1]; ovaries, NHP4): 18.6 μSv/MBq
Estimated radiation dose ([1]; ovaries, mean): 18.4 μSv/MBq
Estimated radiation dose ([1]; pancreas, NHP3): 16.4 μSv/MBq
Estimated radiation dose ([1]; pancreas, NHP4): 15.4 μSv/MBq
Estimated radiation dose ([1]; pancreas, mean): 15.9 μSv/MBq
Estimated radiation dose ([1]; red marrow, NHP3): 10.7 μSv/MBq
Estimated radiation dose ([1]; red marrow, NHP4): 10.7 μSv/MBq
Estimated radiation dose ([1]; red marrow, mean): 10.7 μSv/MBq
Estimated radiation dose ([1]; skin, NHP3): 7.4 μSv/MBq
Estimated radiation dose ([1]; skin, NHP4): 7.4 μSv/MBq
Estimated radiation dose ([1]; skin, mean): 7.4 μSv/MBq
Estimated radiation dose ([1]; small intestine, NHP3): 58.9 μSv/MBq
Estimated radiation dose ([1]; small intestine, NHP4): 62.1 μSv/MBq
Estimated radiation dose ([1]; small intestine, mean): 60.5 μSv/MBq
Estimated radiation dose ([1]; spleen, NHP3): 9.6 μSv/MBq
Estimated radiation dose ([1]; spleen, NHP4): 8.4 μSv/MBq
Estimated radiation dose ([1]; spleen, mean): 9.0 μSv/MBq
Estimated radiation dose ([1]; stomach wall, NHP3): 13.2 μSv/MBq
Estimated radiation dose ([1]; stomach wall, NHP4): 13.1 μSv/MBq
Estimated radiation dose ([1]; stomach wall, mean): 13.2 μSv/MBq
Estimated radiation dose ([1]; testes, NHP3): 8.7 μSv/MBq
Estimated radiation dose ([1]; testes, NHP4): 8.6 μSv/MBq
Estimated radiation dose ([1]; testes, mean): 8.7 μSv/MBq
Estimated radiation dose ([1]; thymus, NHP3): 9.7 μSv/MBq
Estimated radiation dose ([1]; thymus, NHP4): 9.6 μSv/MBq
Estimated radiation dose ([1]; thymus, mean): 9.6 μSv/MBq
Estimated radiation dose ([1]; thyroid, NHP3): 9.1 μSv/MBq
Estimated radiation dose ([1]; thyroid, NHP4): 9.1 μSv/MBq
Estimated radiation dose ([1]; thyroid, mean): 9.1 μSv/MBq
Estimated radiation dose ([1]; total body, NHP3): 12.2 μSv/MBq
Estimated radiation dose ([1]; total body, NHP4): 12.1 μSv/MBq
Estimated radiation dose ([1]; total body, mean): 12.2 μSv/MBq
Estimated radiation dose ([1]; urinary bladder wall, NHP3): 11.3 μSv/MBq
Estimated radiation dose ([1]; urinary bladder wall, NHP4): 11.4 μSv/MBq
Estimated radiation dose ([1]; urinary bladder wall, mean): 11.4 μSv/MBq
Estimated radiation dose ([1]; uterus, NHP3): 16.1 μSv/MBq
Estimated radiation dose ([1]; uterus, NHP4): 16.3 μSv/MBq
Estimated radiation dose ([1]; uterus, mean): 16.2 μSv/MBq
Specific binding inhibited by administration of a MAO-B-selective ligand [2]: approximately 90%
